The source made the active and inactive calls.
Target: T1, Heat shock factor protein 1 (Mus musculus, UniProt P38532)
T1 sequence (P38532 whole entry): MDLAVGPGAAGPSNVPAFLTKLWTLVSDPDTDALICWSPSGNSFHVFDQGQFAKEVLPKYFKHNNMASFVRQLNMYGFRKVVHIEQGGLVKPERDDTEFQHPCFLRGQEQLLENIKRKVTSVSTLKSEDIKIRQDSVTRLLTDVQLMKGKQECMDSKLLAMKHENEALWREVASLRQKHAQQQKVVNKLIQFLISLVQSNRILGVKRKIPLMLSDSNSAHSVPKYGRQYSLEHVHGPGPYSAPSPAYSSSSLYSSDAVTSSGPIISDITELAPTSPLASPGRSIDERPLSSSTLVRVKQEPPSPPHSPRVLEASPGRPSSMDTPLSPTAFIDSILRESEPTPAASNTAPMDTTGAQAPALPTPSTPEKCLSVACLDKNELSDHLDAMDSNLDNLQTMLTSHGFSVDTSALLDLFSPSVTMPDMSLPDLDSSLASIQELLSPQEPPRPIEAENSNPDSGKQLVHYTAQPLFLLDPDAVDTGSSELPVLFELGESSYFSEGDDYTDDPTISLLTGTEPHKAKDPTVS
Experiment: inhibition of MG132-induced HSE-luciferase signal, confirmation, cell-based, NIH3T3, luminescence, dose retest (AID 2382);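 note: NIH3T3 fibroblasts with HSF1-driven luciferase reporter stressed by proteasome inhibitor MG132; luminescence from HSF1-driven luciferase expression after 8 hours of MG132 stress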
Type: functional
Details: not given

SMILES | EC50
O=C(CSc1nc2cc(Cl)ccc2s1)Nc1cccc(S(=O)(=O)N2CCOCC2)c1 | > 195 µM (not active)
CN(C)/C=C/C(=O)c1ccc(-c2ccc(Cl)cc2Cl)o1 | > 195 µM (not active)
Cc1nc(-c2ccc(Cl)cc2)sc1C1(C)CC(c2ccc(Cl)cc2)=NO1 (stereo not drawn) | > 195 µM (not active)
COC(=O)[C@H]1[C@H]2C[C@@H]3c4[nH]c5cc(OC)ccc5c4CCN3C[C@H]2C[C@@H](OC(=O)c2ccc(N)cc2)[C@@H]1OC | > 195 µM (not active)
COC(=O)c1cc2ccsc2n1Cc1nc(-c2ccc(Cl)cc2)oc1C | > 195 µM (not active)
Cc1ccc(S(=O)(=O)c2c(C(=O)c3ccccc3)cnc3cc4c(cc23)OCCO4)cc1 | > 195 µM (not active)
O=C1CC(c2nc3ccccc3[nH]2)CN1c1ccccc1F (stereo not drawn) | > 195 µM (not active)
COc1cccc(CNC(=O)Cn2c(=O)c3cccn3c3ccccc32)c1 | > 195 µM (not active)
CSc1ncc(C(=O)Nc2cccnc2)c(C(F)(F)F)n1 | > 195 µM (not active)
NC(=O)C1CCN(c2ccnc3cc(Cl)ccc23)CC1 | > 195 µM (not active)
Cc1ccc(C)c(NC(=O)COc2coc(CN3CCc4ccccc4C3)cc2=O)c1 | > 195 µM (not active)
COc1cc(NC(=O)c2cc3cccc(OC)c3o2)cc(C(=O)Nc2cccc(C(F)(F)F)c2)c1 | 3.5 µM (active)
Cc1ccc(Cn2ncc3c(N4CCN(C)CC4)ncnc32)cc1 | > 195 µM (not active)
O=C(Cn1cnc2c(nnn2Cc2ccc(Cl)cc2)c1=O)N1CCCc2ccccc21 | > 195 µM (not active)
Nn1c(=O)c2ccccc2n2c(SCc3ccccc3)nnc12 | > 195 µM (not active)
CCCN1C(=O)/C(=C\c2ccncc2)S/C1=N/c1ccccc1 | > 195 µM (not active)
O=C(O)CCN1Cc2ccccc2C1=O | > 195 µM (not active)

Target: Cytochrome P450 2C19 (Homo sapiens, UniProt P33261)
Experiment: Cytochrome panel assay with activity outcomes. Panel member name: p450-cyp2c19 Compounds with AC50 equal or less than 10 uM are considered active
Type: functional
Details: not given

Cytochrome P450 2C19, sequence (P33261 whole entry): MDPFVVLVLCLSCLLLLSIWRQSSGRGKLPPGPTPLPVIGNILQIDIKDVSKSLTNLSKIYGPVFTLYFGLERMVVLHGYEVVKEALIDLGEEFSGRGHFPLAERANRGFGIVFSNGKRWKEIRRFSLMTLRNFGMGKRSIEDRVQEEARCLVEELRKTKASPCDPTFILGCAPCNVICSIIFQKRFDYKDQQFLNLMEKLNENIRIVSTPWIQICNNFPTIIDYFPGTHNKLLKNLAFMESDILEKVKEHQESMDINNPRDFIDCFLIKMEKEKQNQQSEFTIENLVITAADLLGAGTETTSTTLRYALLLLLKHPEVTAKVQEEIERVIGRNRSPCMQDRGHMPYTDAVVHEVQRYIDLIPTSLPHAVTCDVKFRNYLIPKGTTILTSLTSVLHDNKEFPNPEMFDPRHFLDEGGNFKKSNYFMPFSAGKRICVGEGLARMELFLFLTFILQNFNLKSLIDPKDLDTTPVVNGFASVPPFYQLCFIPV

SMILES | AC50
COC(=O)c1cc(=O)n(C2CC2)/c(=N/C2CC2)s1 | inconclusive
CC(=O)Nc1c(O)oc2ccccc2/c1=N\C(C)C | inconclusive

Same assay, conditions: read-out: AC50

SMILES | AC50
CC1=[N+]([O-])C2(C)CCCCC2(O)[N+]([O-])=C1C (stereo not drawn) | 15.8 µM (inconclusive)
COc1ccc(-n2c(=O)[nH]cc(C(=O)Nc3ccc4c(c3)OCCO4)c2=O)cc1 | 10 µM (inconclusive)
CCOC(=O)c1cnc(-c2ccccc2)nc1Oc1cccc(Cl)c1 | 3.98 µM (inconclusive)
Oc1ccccc1CNn1cnnc1 | 0.2 µM (inconclusive)
C[C@@](N)(C(=O)O)c1cccc(CC(=O)O)c1 | 20 µM (inconclusive)
N#Cc1cccc(-c2nccc(NCc3cccnc3)n2)c1 | 20 µM (inconclusive)
CNc1cc(N2CCCCCC2)ccc1[N+](=O)[O-] | 3.55 µM (inconclusive)
COc1ccc(C2C(=O)N(C3CCCCCC3)CC(=O)N2Cc2ccccc2)cc1OC (stereo not drawn) | 39.8 µM (inconclusive)

Test system: not listed separately
Experiment: cytotoxicity toward NIH3T3 fibroblasts, dose response, counter-screen, cell-based, ATP luminescence, mouse fibroblasts (AID 2010);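 note: cells exposed to compound for about 90 hours before reading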
Type: functional
Details: not given

SMILES | EC50
COc1ccc(C(=O)C2CCCN(Cc3ccc(C#CCCO)cc3)C2)cc1F (stereo not drawn) | > 60 µM (not active)
COC(=O)[C@H]1[C@H]2C[C@@H]3c4[nH]c5cc(OC)ccc5c4CCN3C[C@H]2C[C@@H](OC(=O)c2ccc(N)cc2)[C@@H]1OC | > 30 µM (not active)
Cc1ccc(CN2CCN(Cc3cccc4c3OCO4)CC2CCO)cc1 (stereo not drawn) | > 60 µM (not active)
Cc1ccccc1Nc1c(-c2ccncc2)nc2ccc(Br)cn12 | > 30 µM (not active)
Cc1ccc(CN(C(=O)Cc2cccs2)C(C(=O)NC2CCCC2)c2ccncc2)cc1 (stereo not drawn) | > 60 µM (not active)
CN(C)CCCNc1cnnc(O)c1Cl | > 30 µM (not active)
CCOC(=O)Cc1csc(NC(=O)CSc2nnc(-c3ccc(OC)cc3)n2C)n1 | > 60 µM (not active)
CSc1nc(NCc2ccccc2)c2c3c(sc2n1)CN(C)CC3 | > 30 µM (not active)
O=[N+]([O-])c1ccc(Sc2nccn2Cc2ccccc2)c([N+](=O)[O-])c1 | > 60 µM (not active)
Cc1ccccc1-n1cnc2c(sc3nc(N4CCOCC4)c4c(c32)CCCC4)c1=O | > 60 µM (not active)
CN(C)c1ccc(C(=S)N2CCN(S(=O)(=O)c3ccccc3)CC2)cc1 | > 60 µM (not active)
COc1ccc(C(Nc2ccccn2)c2c(NC(=O)c3ccco3)sc(C)c2C)cc1 (stereo not drawn) | > 60 µM (not active)
CC(=O)N(CCCc1ccc(C(C)(C)C)cc1)CCCN(C)C | > 60 µM (not active)
CCN(CC)S(=O)(=O)c1ccc(N2CCN(c3cccc(OC)c3)CC2)c([N+](=O)[O-])c1 | > 60 µM (not active)

Target: T2, Cytochrome P450 1A2 (Homo sapiens, UniProt P05177);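 note: PubChem cytochrome P450 panel assay, CYP1A2 panel member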
T2 sequence (P05177 whole entry): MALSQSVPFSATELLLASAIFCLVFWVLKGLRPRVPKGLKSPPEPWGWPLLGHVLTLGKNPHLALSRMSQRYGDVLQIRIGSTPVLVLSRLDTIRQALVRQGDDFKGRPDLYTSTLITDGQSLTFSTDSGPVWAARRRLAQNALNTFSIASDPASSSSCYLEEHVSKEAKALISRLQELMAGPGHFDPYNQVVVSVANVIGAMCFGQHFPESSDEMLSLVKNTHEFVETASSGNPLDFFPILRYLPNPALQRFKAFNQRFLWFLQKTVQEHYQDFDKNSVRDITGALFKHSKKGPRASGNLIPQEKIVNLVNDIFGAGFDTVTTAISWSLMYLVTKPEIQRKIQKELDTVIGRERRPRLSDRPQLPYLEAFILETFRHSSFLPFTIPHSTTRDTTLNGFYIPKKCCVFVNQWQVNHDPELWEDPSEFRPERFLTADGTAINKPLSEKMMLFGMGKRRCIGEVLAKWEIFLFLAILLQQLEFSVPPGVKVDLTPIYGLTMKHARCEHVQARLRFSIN
Details: not given

SMILES | AC50
S=C1NCN2CCN(CC2)CNC(=S)C(=S)NCN2CCN(CC2)CNC1=S | 3.16 µM (inconclusive)
CCCc1c(OCCCOc2ccc(OCC(=O)O)cc2)ccc(CC=O)c1O | 31.6 µM (inconclusive)
C[C@@](N)(C(=O)O)c1cccc(CC(=O)O)c1 | 39.8 µM (inconclusive)
N#CCCn1c(=O)cnc2cnc(Oc3ccccc3)nc21 | 15.8 µM (inconclusive)
CC(C)NC(=O)N1CC2(CCN(C(=O)c3cc(C(F)(F)F)cc(C(F)(F)F)c3)CC2)C1 | 12.6 µM (inconclusive)
O=c1c(-c2cc(F)cc(F)c2)nc2cnc(N3CCOCC3)nc2n1-c1ccccc1 | 5.01 µM (inconclusive)
CC(C)Cn1c(=O)n(C)c(=O)c2[nH]cnc21 [ISOBUTYLMETHYLXANTHINE] | 20 µM (inconclusive)

Test system: Streptococcus sp. 'group A'
Experiment: growth inhibition of control SK(-) GAS strain, dose response, counter-screen for streptokinase expression inhibitor project, luminescence, kanamycin, BacTiterGlo, confirmation (AID 1900)
Type: functional, organism-based
Details: not given

SMILES | EC50
CC(C)(C)N(Cc1ccccc1)C(=O)COc1cccnc1[N+](=O)[O-] | > 150 µM (not active)
Cc1ccc(CN(C(=O)c2ccco2)C2CCS(=O)(=O)C2)cc1 (stereo not drawn) | > 150 µM (not active)
Cc1ccccc1-c1nc2c3ccccc3nc(S)n2n1 | 14 µM (active)
COc1cc(/C=C2/SC(=S)N(Cc3ccccc3)C2=O)ccc1O | 3.89 µM (active)
CCn1c(=O)c(C(=O)NNC(=O)c2ccccc2)c(O)c2ccccc21 | 7.44 µM (active)
Oc1nc(CSc2ncnc3sccc23)nc2ccccc12 | 0.734 µM (active)
COc1ccc(/C=N/n2c(C)nc3c4ccccc4nc-3c2O)cc1CN1CCCC(C)(C)C1 | 10.9 µM (active)
O=C(O)COc1ccc(/C=N/Nc2nc(Nc3ccccc3)nc(N3CCCCC3)n2)cc1 | 18.2 µM (active)

Target: T3, Streptokinase A (Streptococcus pyogenes serotype M1, UniProt P10520)
T3 sequence (P10520 whole entry): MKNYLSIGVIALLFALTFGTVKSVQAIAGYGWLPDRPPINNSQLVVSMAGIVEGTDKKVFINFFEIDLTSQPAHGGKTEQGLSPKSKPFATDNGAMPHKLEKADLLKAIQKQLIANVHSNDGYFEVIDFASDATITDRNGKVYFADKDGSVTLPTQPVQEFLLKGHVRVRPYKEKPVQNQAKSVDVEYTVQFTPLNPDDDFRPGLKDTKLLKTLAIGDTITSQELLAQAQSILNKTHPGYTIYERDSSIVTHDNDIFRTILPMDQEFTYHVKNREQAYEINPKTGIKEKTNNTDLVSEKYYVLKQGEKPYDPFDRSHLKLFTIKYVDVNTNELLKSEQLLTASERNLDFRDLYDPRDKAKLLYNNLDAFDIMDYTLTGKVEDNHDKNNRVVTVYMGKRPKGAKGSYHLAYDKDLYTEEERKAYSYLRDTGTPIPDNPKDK
Experiment: S. pyogenes streptokinase expression inhibitors, potency, dose response, plasminogen activation absorbance, OD405 (AID 1914);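 note: secreted streptokinase activity via plasminogen activation per viability signal from cell pellet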
Type: functional, Streptococcus pyogenes M1 GAS
Details: not given

SMILES | EC50
CC(C)(C)N(Cc1ccccc1)C(=O)COc1cccnc1[N+](=O)[O-] | > 150 µM (not active)
O=C(NC(=S)Nn1cnc2c(cnn2-c2ccccc2)c1=O)c1ccc(Oc2ccccc2)cc1 | > 150 µM (not active)
Cc1ccc(CN(C(=O)c2ccco2)C2CCS(=O)(=O)C2)cc1 (stereo not drawn) | > 150 µM (not active)
Cc1ccccc1-c1nc2c3ccccc3nc(S)n2n1 | > 150 µM (not active)
COc1cc(/C=C2/SC(=S)N(Cc3ccccc3)C2=O)ccc1O | > 150 µM (not active)
CCn1c(=O)c(C(=O)NNC(=O)c2ccccc2)c(O)c2ccccc21 | > 150 µM (not active)
Oc1nc(CSc2ncnc3sccc23)nc2ccccc12 | > 150 µM (not active)
COc1ccc(/C=N/n2c(C)nc3c4ccccc4nc-3c2O)cc1CN1CCCC(C)(C)C1 | > 150 µM (not active)
O=C(O)COc1ccc(/C=N/Nc2nc(Nc3ccccc3)nc(N3CCCCC3)n2)cc1 | > 150 µM (not active)

Test system: Streptococcus
Experiment: Group A Streptococcus viability loss, dose response, counter-screen for streptokinase expression inhibitor project, luminescence, BacTiterGlo (AID 1915);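 note: potency for reduction of bacterial viability or growth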
Type: functional, organism-based
Details: not given

SMILES | EC50
CC(C)(C)N(Cc1ccccc1)C(=O)COc1cccnc1[N+](=O)[O-] | > 150 µM (not active)
O=C(NC(=S)Nn1cnc2c(cnn2-c2ccccc2)c1=O)c1ccc(Oc2ccccc2)cc1 | > 150 µM (not active)
Cc1ccc(CN(C(=O)c2ccco2)C2CCS(=O)(=O)C2)cc1 (stereo not drawn) | > 150 µM (not active)
Cc1ccccc1-c1nc2c3ccccc3nc(S)n2n1 | > 150 µM (not active)
COc1cc(/C=C2/SC(=S)N(Cc3ccccc3)C2=O)ccc1O | 7.59 µM (active)
CCn1c(=O)c(C(=O)NNC(=O)c2ccccc2)c(O)c2ccccc21 | 20.9 µM (active)
Oc1nc(CSc2ncnc3sccc23)nc2ccccc12 | 14.3 µM (active)
COc1ccc(/C=N/n2c(C)nc3c4ccccc4nc-3c2O)cc1CN1CCCC(C)(C)C1 | > 150 µM (not active)
O=C(O)COc1ccc(/C=N/Nc2nc(Nc3ccccc3)nc(N3CCCCC3)n2)cc1 | 16.7 µM (active)

Test system: not listed separately
Experiment: inhibitors of intracellular T. cruzi replication, confirmation, NIH3T3 host cells, beta-gal luminescence (AID 2044);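 note: intracellular parasites grown in NIH/3T3 mouse fibroblasts as host cells; luminescent beta-galactosidase reporter signal from transgenic T. cruzi replicating inside host cells; inhibitors lower the luminescence signal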
Type: functional, cell-based
Details: not given

SMILES | EC50
COc1ccc(C(=O)C2CCCN(Cc3ccc(C#CCCO)cc3)C2)cc1F (stereo not drawn) | 0.475 µM (active)
COC(=O)[C@H]1[C@H]2C[C@@H]3c4[nH]c5cc(OC)ccc5c4CCN3C[C@H]2C[C@@H](OC(=O)c2ccc(N)cc2)[C@@H]1OC | 2.04 µM (active)
Cc1ccc(CN2CCN(Cc3cccc4c3OCO4)CC2CCO)cc1 (stereo not drawn) | 0.258 µM (active)
Cc1ccccc1Nc1c(-c2ccncc2)nc2ccc(Br)cn12 | 0.832 µM (active)
Cc1ccc(CN(C(=O)Cc2cccs2)C(C(=O)NC2CCCC2)c2ccncc2)cc1 (stereo not drawn) | 2.29 µM (active)
CN(C)CCCNc1cnnc(O)c1Cl | 0.658 µM (active)
CCOC(=O)Cc1csc(NC(=O)CSc2nnc(-c3ccc(OC)cc3)n2C)n1 | > 60 µM (not active)
CSc1nc(NCc2ccccc2)c2c3c(sc2n1)CN(C)CC3 | 0.208 µM (active)
O=[N+]([O-])c1ccc(Sc2nccn2Cc2ccccc2)c([N+](=O)[O-])c1 | 3.06 µM (active)
Cc1ccccc1-n1cnc2c(sc3nc(N4CCOCC4)c4c(c32)CCCC4)c1=O | 1.8 µM (active)
CN(C)c1ccc(C(=S)N2CCN(S(=O)(=O)c3ccccc3)CC2)cc1 | 2.98 µM (active)
COc1ccc(C(Nc2ccccn2)c2c(NC(=O)c3ccco3)sc(C)c2C)cc1 (stereo not drawn) | 1.86 µM (active)
CC(=O)N(CCCc1ccc(C(C)(C)C)cc1)CCCN(C)C | 0.65 µM (active)
CCN(CC)S(=O)(=O)c1ccc(N2CCN(c3cccc(OC)c3)CC2)c([N+](=O)[O-])c1 | 1.3 µM (active)
